Read-outs that look alike come from different tables or passages of the source.
Tests used:
[1] = test system: HCT116 MTAP null cells; test: HCT116 proliferation assay, MTAP null cells (CellTiter-Glo, 6 days); type: cell-based; details: read-out: Protif_ HCT116-MTAP null IC50
Summary of the method: (§1)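 Both lines grow in RPMI 1640 containing 10% fetal bovine serum. After an overnight rest, they receive compound at up to 1 or 10 µM in threefold serial dilutions, with vehicle wells holding DMSO only.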

[2] = test system: HCT116 WT cells; test: HCT116 proliferation assay, WT cells (CellTiter-Glo, 6 days); type: cell-based; details: read-out: Prolif_HCT116-WT IC50
Summary of the method: as §1

Molecule	IC50 ([1]; HCT116-MTAP null, 144 h) [nM]	IC50 ([2]; Homo sapiens, HCT-116, 144 h) [nM]	IC50 [1] [nM]	IC50 [2] [nM]	IC50 ([1]; 144 h) [nM]
Cc1nc(CN(C(=O)c2cnc3nc(N)c(I)cc3c2)[C@H](C)c2ncccn2)ccc1C#N [Example 840, (R)-7-amino-N-((5-cyano-6-methylpyridin-2-yl)methyl)-6-iodo-N-(1-(pyrimidin-2-yl)ethy1)-1,8-naphthyridine-3-carboxamide]	90	5500	–	–	–
Cc1cc2cc(C(=O)N(Cc3ccc(C(F)(F)F)cn3)Cc3cc(Cl)cn3C)ccc2nc1N [Example 582, 2-amino-N-((4-chloro-1-methyl-1H-pyrrol-2-yl)methyl)-3-methyl-N-((5-(trifluoromethyl)pyridin-2-yl)methyl)quinoline-6-carboxamide]	490	> 1000	–	–	–
Cc1cc2cc(C(=O)N(Cc3ccc(C#N)nc3C)[C@H](C)c3ncccn3)ccc2nc1N (single isomer, unassigned) [Example 820]	239	3550	–	–	–
Cc1cc2cc(C(=O)N(Cc3ccc(C4CC4)nn3)[C@H](C)c3ncccn3)ccc2nc1N [Example 761, (R)-2-amino-N-((6-cyclopropylpyridazin-3-yl)methyl)-3-methyl-N-(1-(pyrimidin-2-yl)ethyl)quinoline-6-carboxamide]	64	1350	–	–	–
Cc1cc2cc(C(=O)N(Cc3ccc(N4CCOCC4)cn3)[C@H](C)c3ncccn3)ccc2nc1N [Example 764, (R)-2-amino-3-methyl-N-((5-morpholinopyridin-2-yl)methyl)-N-(1-(pyrimidin-2-yl)ethyl)quinoline-6-carboxamide]	287	4220	–	–	–
CC(c1ncccc1F)N(Cc1ccc(N2CCOCC2)nn1)C(=O)c1cnc2nc(N)c(Br)cc2c1 (stereo in doubt) [Example 730, 7-amino-6-bromo-N-((1R)-1-(3-fluoro-2-pyridinyl)ethyl)-N-((6-(4-morpholinyl)-3-pyridazinyl)methyl)-1,8-naphthyridine-3-carboxamide]	507	8460	–	–	–
2-amino-N-((1S,2S)-2-methoxy-2,3-dihydro-1H-inden-1-yl)-3-methyl-N-((5-(trifluoromethyl)-2-pyridinyl)methyl)-6-quinolinecarboxamide [Example 753]	–	–	408	> 10000	–
Cc1cc2cc(C(=O)N(Cc3ccc(C(F)(F)F)cn3)[C@H](C)c3ncccn3)ccc2nc1N [Example 503, 2-amino-3-methyl-N-((1R)-1-(2-pyrimidinyl)ethyl)-N-((5-(trifluoromethyl)-2-pyridinyl)methyl)-6-quinolinecarboxamide]	–	680	–	–	26
COc1ccc(CN(C(=O)c2ccc3nc(N)c(Br)cc3c2)C(C)c2ncn(C)n2)nn1 (stereo in doubt) [Example 755, (R)-2-amino-3-bromo-N-((6-methoxypyridazin-3-yl)methyl)-N-(1-(1-methyl-1H-1,2,4-triazol-3-yl)ethyl)quinoline-6-carboxamide]	184	> 10000	–	–	–
Cc1cc2cc(C(=O)N(Cc3ccc(C(F)(F)F)cn3)CC(C)C)c(O)cc2nc1N [Example 835, 2-Amino-7-hydroxy-3-methyl-N-(2-methylpropyl)-N-((5-(trifluoromethyl)-2-pyridinyl)methyl)-6-quinolinecarboxamide]	448	8010	–	–	–
Cc1cc2cc(C(=O)N(Cc3ccc(C(F)(F)F)cn3)[C@H](C)c3ccc(F)cn3)ccc2nc1N (single isomer, unassigned) [Example 484]	59	2330	–	–	–
COC[C@H](C1CC1)N(Cc1ccc(N2CCOCC2)nn1)C(=O)c1ccc2nc(N)c(Br)cc2c1 [Example 732, 2-amino-3-bromo-N-((1S)-1-cyclopropyl-2-methoxyethyl)-N-((6-(4-morpholinyl)-3-pyridazinyl)methyl)-6-quinolinecarboxamide]	231	> 10000	–	–	–
N#CC1(CN(Cc2ccc(C(F)(F)F)cn2)C(=O)c2ccc3nc(N)c(Br)cc3c2)CC1 [Example 828, 2-amino-3-bromo-N-((1-cyanocyclopropyl)methyl)-N-((5-(trifluoromethyl)pyridin-2-yl)methyl)quinoline-6-carboxamide]	910	> 10000	–	–	–
Cc1cc2cc(C(=O)N(Cc3ccc(C(F)(F)F)cn3)Cc3csnn3)ccc2nc1N [Example 564, 2-amino-3-methyl-N-(thiadiazol-4-ylmethyl)-N-[[5-(trifluoromethyl)-2-pyridyl]methyl] quinoline-6-carboxamide]	102	> 1000	–	–	–
Cc1cc2cc(C(=O)N(Cc3ccc(C(C)(C)O)cn3)[C@H](C)c3ncccn3)ccc2nc1N [Example 801, 2-amino-N-((5-(2-hydroxy-2-propanyl)-2-pyridinyl)methyl)-3-methyl-N-((1R)-1-(2-pyrimidinyl)ethyl)-6-quinolinecarboxamide]	533	> 10000	–	–	–
C[C@H](c1ncccn1)N(Cc1cc(Cl)c(C#N)cn1)C(=O)c1ccc2nc(N)c(Br)cc2c1 [Example 745, (R)-2-amino-3-bromo-N-((4-chloro-5-cyanopyridin-2-yl)methyl)-N-(1-(pyrimidin-2-yl)ethyl)quinoline-6-carboxamide]	223	1240	–	–	–
Cc1nc(CN(C(=O)c2ccc3nc(N)c(Br)cc3c2)[C@H](C)c2ncccn2)ccc1C#N [Example 796, (R)-2-amino-3-bromo-N-((5-cyano-6-methylpyridin-2-yl)methyl)-N-(1-(pyrimidin-2-yl)ethyl)quinoline-6-carboxamide]	308	> 10000	–	–	–
CCOc1ccc(CN(C(=O)c2ccc3nc(N)c(Br)cc3c2)[C@H](C)c2ncccn2)nn1 [Example 729, 2-amino-3-bromo-N-((6-ethoxy-3-pyridazinyl)methyl)-N-((1R)-1-(2-pyrimidinyl)ethyl)-6-quinolinecarboxamide]	114	6900	–	–	–
Cc1cc2cc(C(=O)N(Cc3ccc(N4CCCCC4)cc3)Cc3ccnc4[nH]ccc34)ccc2nc1N [Example 563, 2-amino-3-methyl-N-[[4-(1-piperidyl)phenyl]methyl]-N-(1H-pyrrolo [2,3-b]pyridin-4-ylmethyl)quinoline-6-carboxamide]	165	> 1000	–	–	–
Cc1cc2cc(C(=O)N(Cc3cc(Cl)c(C#N)cn3)[C@H](C)c3ncccn3)ccc2nc1N [Example 807, (R)-2-amino-N-((4-chloro-5-cyanopyridin-2-yl)methyl)-3-methyl-N-(1-(pyrimidin-2-yl)ethyl)quinoline-6-carboxamide]	75	764	–	–	–
Cc1cc2cc(C(=O)N(Cc3cc4c(cn3)OCCC4)C(C)c3ncccn3)ccc2nc1N (stereo not shown) [Example 741, 2-amino-N-((3,4-dihydro-2H-pyrano[2,3-c]pyridin-6-yl)methyl)-3-methyl-N-(1-(pyrimidin-2-yl)ethyl)quinoline-6-carboxamide]	270	8360	–	–	–
COc1ccc(CN(C(=O)c2ccc3nc(N)c(C)cc3c2)C(C)c2ncn(C)n2)nn1 (stereo not shown) [Example 756, 2-amino-N-((6-methoxypyridazin-3-yl)methyl)-3-methyl-N-(1-(1-methyl-1H-1,2,4-triazol-3-yl)ethyl)quinoline-6-carboxamide]	228	5950	–	–	–
CC[C@H](c1ncccn1)N(Cc1ccc(C(F)(F)F)cn1)C(=O)c1cnc2nc(N)c(Br)cc2c1 (single isomer, unassigned) [Example 443]	96	2080	–	–	–

Source: patent US20230159510A1, “NOVEL PRMT5 INHIBITORS” (AMGEN INC., priority 2020, published 2023)
